Assay results published in patent US20260042764A1, “COMPOSITIONS AND METHODS FOR INHIBITION OF KRAS” (TheRas, Inc., priority 2022, published 2026).

What was measured:
[1] = target: T1, Avi-KRAS WT (1-169) GppNHp/RAF1 RBD-3xFLAG (52-151) (Homo sapiens, UniProt P01116); test: Raf1-KRAS WT-GppNHP disruption HTRF assay (Biological Example 1); type: binding
T1 construct: Avi-KRAS WT (1-169)
How it was run: (§1)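 Using HTRF, the loss of KRAS–effector RAF1 complex was quantified in 50 mM Tris pH 7.5 buffer with 100 mM NaCl and 0.1% BSA. The protein step and reagent step ran 1 h each at room temperature. Activity normalized with DMSO taken as 100%.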

GP2d cells (KRAS G12D) = test: Cell-based pERK HTRF assay in GP2d cell (Biological Example 2); conditions: GP2d (KRAS G12D) cells
How it was run: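 Cells grown in DMEM with 10% FBS were exposed to compound for 60 min at 0.25% DMSO, using a 9-point half-log series starting at 1 μM or 100 nM. Lysates were then mixed with d2 and Eu cryptate antibodies for 4–24 h at room temperature, and pERK was read by HTRF.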

[2] = target: T2, Avi-KRAS G12D (1-169) GppNHp/RAF1 RBD-3xFLAG (52-151) (Homo sapiens, UniProt P01116, G12D); test: Raf1-KRAS G12D-GppNHP disruption HTRF assay (Biological Example 1); type: binding
T2 construct: Avi-KRAS G12D (1-169)
How it was run: as §1

[3] = target: T3, Avi-KRAS G12V (2-169) GTP/RAF1 RBD-3xFLAG (51-131) (Homo sapiens, UniProt P01116, G12V); test: Raf1-KRAS G12V-GTP disruption HTRF assay (Biological Example 3); type: binding; conditions: KRAS G12V, GTP-loaded
T3 construct: Avi-KRAS G12V (2-169)
How it was run: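 Compounds were titrated 10-point, 3-fold from 30 μM against preformed KRAS-GTP:RAF1 RBD (51-131) complexes at 50 nM, using KRAS 2-169 as WT, G12C, G12D or G12V. After 1 h at room temperature in Tris pH 7.5 buffer with MgCl2 and 10% DMSO, time-resolved fluorescence was read. Results are percent activity versus DMSO.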

[4] = target: T4, Avi-KRAS G12R (1-169) GppNHp/RAF1 RBD-3xFLAG (52-151) (Homo sapiens, UniProt P01116, G12R); test: Raf1-KRAS G12R-GppNHP disruption HTRF assay (Biological Example 1); type: binding
T4 construct: Avi-KRAS G12R (1-169)
How it was run: as §1

[5] = KRAS WT, GppNHp-loaded, class symbols
[6] = KRAS G12D, GppNHp-loaded, class symbols
[7] = KRAS G12R, GppNHp-loaded, class symbols
[8] = KRAS WT, GppNHp-loaded, Table 11
[9] = KRAS G12D, GppNHp-loaded, Table 11
[10] = KRAS G12R, GppNHp-loaded, Table 11

T3 sequence (P01116 2-169 isoform P01116-2 G12V): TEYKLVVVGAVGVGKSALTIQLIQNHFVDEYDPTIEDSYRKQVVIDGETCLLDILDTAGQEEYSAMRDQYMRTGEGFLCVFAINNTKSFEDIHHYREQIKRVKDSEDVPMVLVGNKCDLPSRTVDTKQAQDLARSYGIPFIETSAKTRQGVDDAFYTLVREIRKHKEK
T1 sequence (P01116 1-169 isoform P01116-2): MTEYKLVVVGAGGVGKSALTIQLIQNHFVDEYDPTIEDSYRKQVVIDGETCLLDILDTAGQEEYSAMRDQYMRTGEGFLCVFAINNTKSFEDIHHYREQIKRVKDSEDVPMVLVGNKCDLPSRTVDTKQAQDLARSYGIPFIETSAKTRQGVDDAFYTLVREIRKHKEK
T4 sequence (P01116 1-169 isoform P01116-2 G12R): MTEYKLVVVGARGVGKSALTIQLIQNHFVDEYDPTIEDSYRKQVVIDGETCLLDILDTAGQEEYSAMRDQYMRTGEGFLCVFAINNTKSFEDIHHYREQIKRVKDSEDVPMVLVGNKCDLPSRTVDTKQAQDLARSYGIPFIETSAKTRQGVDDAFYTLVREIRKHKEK
T2 sequence (P01116 1-169 isoform P01116-2 G12D): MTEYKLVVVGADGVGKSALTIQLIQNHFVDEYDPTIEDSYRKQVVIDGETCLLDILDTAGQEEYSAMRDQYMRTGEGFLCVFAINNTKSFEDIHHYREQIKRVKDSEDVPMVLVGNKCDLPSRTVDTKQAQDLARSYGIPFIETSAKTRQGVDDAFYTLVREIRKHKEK

| Compound | IC50 ([1]; KRAS WT-GppNHp/RAF1 RBD HTRF) [nM] | IC50 ([2]; KRAS G12D-GppNHp/RAF1 RBD HTRF) [nM] | IC50 ([4]; KRAS G12R-GppNHp/RAF1 RBD HTRF) [nM] | IC50 [1, 5] [nM] | IC50 [2, 6] [nM] | IC50 [4, 7] [nM] | IC50 (GP2d cells (KRAS G12D); GP2d, pERK HTRF) [nM] | also measured |
| --- | --- | --- | --- | --- | --- | --- | --- | --- |
| C[C@@H]1[C@H](N(C)c2nc(OC[C@@]34CCCN3C[C@H](F)C4)nc3c(F)c(-c4ccc(F)c5sc(N)c(C#N)c45)c(C(F)(F)F)cc23)CCN1C(=O)C1CC1 (atropisomer, axis not shown) [Compound 333] | < 100 | < 100 | < 100 | – | – | – | – | IC50 (GP2d cells (KRAS G12D); pERK HTRF): < 100 nM; IC50 (GP2d cells (KRAS G12D); GP2d): < 100 nM; IC50 [3]: 100 to 1000 nM |
| CCC(=O)N1CC[C@@H](N(C)c2nc(OC[C@@]34CCCN3C[C@H](F)C4)nc3c(F)c(-c4ccc(F)c5sc(N)c(C#N)c45)c(C(F)(F)F)cc23)[C@H]1C (atropisomer, axis not shown) [Compound 335] | < 100 | < 100 | < 100 | – | – | – | – | IC50 (GP2d cells (KRAS G12D); pERK HTRF): < 100 nM; IC50 (GP2d cells (KRAS G12D); GP2d): < 100 nM; IC50 [3]: 100 to 1000 nM |
| CCN(c1nc(OC[C@@]23CCCN2C[C@H](F)C3)nc2c(F)c(-c3ccc(F)c4sc(N)c(C#N)c34)c(C(F)(F)F)cc12)[C@H]1CCN(C(=O)[C@H]2CCO2)C1 (atropisomer, axis not shown) [Compound 577] | – | – | – | < 100 | < 100 | < 100 | – | IC50 (GP2d cells (KRAS G12D); GP2d): < 100 nM; IC50 (GP2d cells (KRAS G12D); GP2d, pERK HTRF, class symbols): < 100 nM; IC50 [3]: ≤ 100 nM |
| CCN(c1nc(OC[C@@]23CCCN2C[C@H](F)C3)nc2c(F)c(-c3ccc(F)c4sc(N)c(C#N)c34)c(C(F)(F)F)cc12)[C@H]1CCN(C(=O)C2CC2)[C@@H]1C (atropisomer, axis not shown) [Compound 579] | – | – | – | < 100 | < 100 | < 100 | – | IC50 (GP2d cells (KRAS G12D); GP2d): < 100 nM; IC50 (GP2d cells (KRAS G12D); GP2d, pERK HTRF, class symbols): < 100 nM; IC50 [3]: 100 to 1000 nM |
| CCN(c1nc(OC[C@@]23CCCN2C[C@H](F)C3)nc2c(F)c(-c3ccc(F)c4sc(N)c(C#N)c34)c(C(F)(F)F)cc12)[C@H]1CCN(C(=O)c2ncco2)C1 (atropisomer, axis not shown) [Compound 584] | – | – | – | < 100 | < 100 | < 100 | – | IC50 (GP2d cells (KRAS G12D); GP2d, pERK HTRF, class symbols): < 100 nM |
| CCN(c1nc(OC[C@@]23CCCN2C[C@H](F)C3)nc2c(F)c(-c3ccc(F)c4sc(N)c(C#N)c34)c(C(F)(F)F)cc12)[C@H]1C[C@@H](C)N(C(=O)C2COC2)C1 (atropisomer, axis not shown) [Compound 586] | – | – | – | < 100 | < 100 | < 100 | – | IC50 (GP2d cells (KRAS G12D); GP2d): < 100 nM; IC50 (GP2d cells (KRAS G12D); GP2d, pERK HTRF, class symbols): < 100 nM; IC50 [3]: 100 to 1000 nM |
| C[C@H](c1cccnc1N)N(C)c1nc(OC[C@@]23CCCN2C[C@H](F)C3)nc2c(F)c(-c3ccc(F)c4sc(N)c(C#N)c34)c(C(F)(F)F)cc12 (atropisomer, axis not shown) [Compound 600] | – | – | – | < 100 | < 100 | < 100 | – | IC50 (GP2d cells (KRAS G12D); GP2d): < 100 nM; IC50 (GP2d cells (KRAS G12D); GP2d, pERK HTRF, class symbols): < 100 nM; IC50 [3]: ≤ 100 nM |
| CCN(c1nc(OC[C@@]23CCCN2C[C@H](F)C3)nc2c(F)c(-c3ccc(F)c4sc(N)c(C#N)c34)c(C(F)(F)F)cc12)[C@H]1C[C@H](C)N(C(=O)[C@@H]2CC2(F)F)C1 (atropisomer, axis not shown) [Compound 751] | – | – | – | 100 to 1000 | < 100 | < 100 | – | IC50 (GP2d cells (KRAS G12D); GP2d, pERK HTRF, class symbols): < 100 nM |
| N#Cc1c(N)sc2c(F)ccc(-c3c(C(F)(F)F)cc4c(N5CC6CC5CO6)nc(OC[C@@]56CCCN5C[C@H](F)C6)nc4c3F)c12 (stereo partly drawn) [Compound 147] | – | – | – | – | – | – | < 100 | IC50 [1, 8]: 100 to 1000 nM; IC50 [2, 9]: 100 to 1000 nM; IC50 [4, 10]: 100 to 1000 nM |
| N#Cc1c(N)sc2c(F)ccc(-c3c(C(F)(F)F)cc4c(N5CCC[C@@H](O)C5)nc(OC[C@@]56CCCN5C[C@H](F)C6)nc4c3F)c12 [Compound 234] | – | – | – | – | – | – | < 100 | IC50 [1, 8]: 100 to 1000 nM; IC50 [2, 9]: 100 to 1000 nM; IC50 [4, 10]: 100 to 1000 nM |
| C[C@@H]1[C@H](N(C)c2nc(OC[C@@]34CCCN3C[C@H](F)C4)nc3c(F)c(-c4ccc(F)c5sc(N)c(C#N)c45)c(C(F)(F)F)cc23)CCN1C(=O)C1CC1 [Compound 258] | – | – | – | – | – | – | < 100 | IC50 [1, 8]: < 100 nM; IC50 [2, 9]: < 100 nM; IC50 [4, 10]: < 100 nM |
| CCC(=O)N1CC[C@@H](N(C)c2nc(OC[C@@]34CCCN3C[C@H](F)C4)nc3c(F)c(-c4ccc(F)c5sc(N)c(C#N)c45)c(C(F)(F)F)cc23)[C@H]1C [Compound 260] | – | – | – | – | – | – | – | IC50 [1, 8]: < 100 nM; IC50 (GP2d cells (KRAS G12D); pERK HTRF): < 100 nM; IC50 [2, 9]: < 100 nM; IC50 [4, 10]: < 100 nM |
| CCN(c1nc(OC[C@@]23CCCN2C[C@H](F)C3)nc2c(F)c(-c3ccc(F)c4sc(N)c(C#N)c34)c(Cl)cc12)[C@@H]1CCN(C(C)=O)[C@@H]1C [Compound 323] | 100 to 1000 | 100 to 1000 | 100 to 1000 | – | – | – | < 100 | – |
| CCN(c1nc(OC[C@@]23CCCN2C[C@H](F)C3)nc2c(F)c(-c3ccc(F)c4sc(N)c(C#N)c34)c(Cl)cc12)[C@@H]1CCN(C(=O)C2CC2)[C@@H]1C [Compound 337] | 100 to 1000 | 100 to 1000 | 100 to 1000 | – | – | – | < 100 | – |
| CN(Cc1cccnc1N)c1nc(OC[C@@]23CCCN2C[C@H](F)C3)nc2c(F)c(-c3ccc(F)c4sc(N)c(C#N)c34)c(C(F)(F)F)cc12 [Compound 390] | 100 to 1000 | 100 to 1000 | 100 to 1000 | – | – | – | < 100 | – |
| N#Cc1cnn2c1CN(c1nc(OC[C@@]34CCCN3C[C@H](F)C4)nc3c(F)c(-c4ccc(F)c5sc(N)c(C#N)c45)c(C(F)(F)F)cc13)CC2 [Compound 392] | 100 to 1000 | 100 to 1000 | 100 to 1000 | – | – | – | < 100 | – |
| CC(=O)N1CC[C@@H](N(C)c2nc(OC[C@@]34CCCN3C[C@H](F)C4)nc3c(F)c(-c4ccc(F)c5sc(N)c(C#N)c45)c(Cl)cc23)[C@H]1C [Compound 398] | 100 to 1000 | 100 to 1000 | 100 to 1000 | – | – | – | < 100 | – |
| C[C@@H]1[C@H](N(C)c2nc(OC[C@@]34CCCN3C[C@H](F)C4)nc3c(F)c(-c4ccc(F)c5sc(N)c(C#N)c45)c(C(F)(F)F)cc23)CC(=O)N1C [Compound 440] | 100 to 1000 | 100 to 1000 | 100 to 1000 | – | – | – | < 100 | – |
| CCC(=O)N1C[C@@H](N(CC)c2nc(OC[C@@]34CCCN3C[C@H](F)C4)nc3c(F)c(-c4ccc(F)c5sc(N)c(C#N)c45)c(C(F)(F)F)cc23)C[C@H]1C [Compound 442] | 100 to 1000 | 100 to 1000 | 100 to 1000 | – | – | – | < 100 | – |
| CCN(c1nc(OC[C@@]23CCCN2C[C@H](F)C3)nc2c(F)c(-c3ccc(F)c4sc(N)c(C#N)c34)c(C(F)(F)F)cc12)[C@H]1C[C@H](C)N(C(C)=O)C1 [Compound 463] | < 100 | < 100 | < 100 | – | – | – | < 100 | – |
| CCN(c1nc(OCC23CCCN2CC(F)C3)nc2c(F)c(-c3ccc(F)c4sc(N)c(C#N)c34)c(C(F)(F)F)cc12)C1CC(C)N(C(=O)N2CC(F)C2)C1 (stereo not drawn) [Compound 759] | – | – | – | < 100 | < 100 | < 100 | – | IC50 (GP2d cells (KRAS G12D); pERK HTRF, class symbols): < 100 nM |
